Laboratory results: patent US12227496B2 (BRISTOL-MYERS SQUIBB COMPANY, priority 2019, dated 2025)

Target: T1, human FXR (Homo sapiens, UniProt Q96RI1)
T1 construct: expressed in transfected cells; host or cells: HEK293 cells stably carrying a 5xGal4-response-element firefly luciferase reporter, transiently transfected with pcDNA3.1-Gal4-FXR
T1 sequence (Q96RI1 262-486 limits assumed): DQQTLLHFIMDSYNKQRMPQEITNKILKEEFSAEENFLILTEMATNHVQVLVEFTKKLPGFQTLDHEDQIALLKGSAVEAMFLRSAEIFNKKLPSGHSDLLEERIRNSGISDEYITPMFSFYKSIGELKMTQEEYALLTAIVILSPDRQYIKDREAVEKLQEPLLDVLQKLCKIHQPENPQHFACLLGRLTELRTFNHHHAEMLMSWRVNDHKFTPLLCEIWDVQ
Experiment: transient human FXR/Gal4-luciferase reporter assay
Assay type: cell-based
Settings: Gal4-hFXR LBD fusion, luciferase reporter in HEK293 cells; response relative to 8 μM GW-4064
Protocol: A Gal4-hFXR fusion construct reporter system was used as the primary assay to characterize compound activity. A construct including 5 copies of the Gal4 promoter response element upstream of a firefly luciferase reporter cDNA was stably expressed in HEK293 cells. This reporter cell line was maintained in Dulbecco's Modified Eagle's medium (DMEM; Gibco) supplemented with 1% penicillin-streptomycin (P/S) solution, 500 μg/mL Zeocin and 10% charcoal/dextran-treated fetal bovine serum (cs-FBS) at 37° C. in a humidified 5% CO2 atmosphere. […] The day prior to transfection, the reporter cells in culture are detached from the plate with trypsin and plated into a T75 flask at a sufficient density to achieve approximately 90% confluence the next morning. […] The mixture is further diluted with 10 mL of a solution comprised of DMEM, 10% cs-FBS, and 1% P/S immediately prior to transferring to the cells. The maintenance culture media is aspirated from the cells and the final transfection mixture is added before the cells are incubated overnight at 37° C. in a humidified 5% CO2 atmosphere. This protocol can be scaled up, and the transiently transfected cells can be cryopreserved in an assay-ready format. For compound testing, 100 nL of the compounds (serial dilutions in DMSO) are dispensed with an Echo acoustic dispenser (Labcyte) into the wells of a Corning/Costar clear bottom 384-well white plate. The transfected cells are harvested, counted, and diluted such that 10-25,000 cells in 25 μL are plated into each well of the 384-well compound assay plate. The compound-treated cells are incubated overnight at 37° C. in a humidified 5% CO2 atmosphere. The next morning 25 μL of Steady-Glo (Promega) are added to each well of the plate, the mixture is incubated for 15 min. with shaking, and luminescence is measured on an Envision (Perkin Elmer) plate reader.

Structure (SMILES)	EC50 [nM]
O=C(C1CCC(F)(F)CC1)N(CC12CCC(c3nc(CC4CC4)no3)(CC1)CC2)c1cccc(-c2nc(C3CC3)no2)c1 [Example 46, N-(3-(3-cyclopropyl-1,2,4-oxadiazol-5-yl)phenyl)-N-((4-(3-(cyclopropylmethyl)-1,2,4-oxadiazol-5-yl)bicyclo[2.2.2]octan-1-yl)methyl)-4,4-difluorocyclohexane-1-carboxamide]	633
CC(C)(C)c1noc(C23CCC(CN(C(=O)C4CCC(F)(F)CC4)c4cccc(-c5cn[nH]c(=O)c5)c4)(CC2)CC3)n1 [Example 127, N-((4-(3-(tert-Butyl)-1,2,4-oxadiazol-5-yl)bicyclo[2.2.2]octan-1-yl)methyl)-4,4-difluoro-N-(3-(6-oxo-1,6-dihydropyridazin-4-yl)phenyl)cyclohexane-1-carboxamide]	4000
CC(F)(F)c1nc(C23CCC(CN(C(=O)C4CCC(O)(C(F)(F)F)CC4)c4cccc(-c5cc(C6CC6)on5)c4)(CC2)CC3)no1 (stereo not drawn) [Example 158, N-(3-(5-cyclopropylisoxazol-3-yl)phenyl)-N-((4-(5-(1,1-difluoroethyl)-1,2,4-oxadiazol-3-yl)bicyclo[2.2.2]octan-1-yl)methyl)-4-hydroxy-4-(trifluoromethyl)cyclohexane-1-carboxamide]	195
O=C(C1CCOCC1)N(CC12CCC(c3nc(C4CC4)no3)(CC1)CC2)c1cccc(-c2nc(C(F)F)co2)c1 [Example 36, N-((4-(3-cyclopropyl-1,2,4-oxadiazol-5-yl)bicyclo[2.2.2]octan-1-yl)methyl)-N-(3-(4-(difluoromethyl)oxazol-2-yl)phenyl)tetrahydro-2H-pyran-4-carboxamide]	525
COCc1nc(-c2cccc(N(CC34CCC(c5nc(C6CC6)no5)(CC3)CC4)C(=O)C3CCOCC3)c2)cs1 [Example 47, N-((4-(3-cyclopropyl-1,2,4-oxadiazol-5-yl)bicyclo[2.2.2]octan-1-yl)methyl)-N-(3-(2-(methoxymethyl)thiazol-4-yl)phenyl)tetrahydro-2H-pyran-4-carboxamide]	121
CCOc1ncc(-c2cccc(N(CC34CCC(c5noc(C(C)(C)F)n5)(CC3)CC4)C(=O)c3ccc(OC(F)F)cc3)c2)cn1 [Example 144, 4-(difluoromethoxy)-N-(3-(2-ethoxypyrimidin-5-yl)phenyl)-N-((4-(5-(2-fluoropropan-2-yl)-1,2,4-oxadiazol-3-yl)bicyclo[2.2.2]octan-1-yl)methyl)benzamide]	334
CCCc1ncc(-c2cccc(N(CC34CCC(c5nc(C6CC6)no5)(CC3)CC4)C(=O)C3CCOCC3)c2)o1 [Example 29, N-((4-(3-cyclopropyl-1,2,4-oxadiazol-5-yl)bicyclo[2.2.2]octan-1-yl)methyl)-N-(3-(2-propyloxazol-5-yl)phenyl)tetrahydro-2H-pyran-4-carboxamide]	53
CC(C)(C)c1noc(C23CCC(CN(C(=O)C4CCC(F)(F)CC4)c4cccc(-c5nc(C6CC6)no5)c4)(CC2)CC3)n1 [Example 103, N-((4-(3-(tert-butyl)-1,2,4-oxadiazol-5-yl)bicyclo[2.2.2]octan-1-yl)methyl)-N-(3-(3-cyclopropyl-1,2,4-oxadiazol-5-yl)phenyl)-4,4-difluorocyclohexane-1-carboxamide]	250
O=C(C1CCOCC1)N(CC12CCC(c3nc(C4CC4)no3)(CC1)CC2)c1cccc(-c2nc(CC3CC3)no2)c1 [Example 44, N-((4-(3-cyclopropyl-1,2,4-oxadiazol-5-yl)bicyclo[2.2.2]octan-1-yl)methyl)-N-(3-(3-(cyclopropylmethyl)-1,2,4-oxadiazol-5-yl)phenyl)tetrahydro-2H-pyran-4-carboxamide]	118
COC(=O)c1noc(-c2cccc(N(CC34CCC(c5nc(C6CC6)no5)(CC3)CC4)C(=O)C3CCCCC3)c2)n1 [Example 2, Methyl 5-(3-(N-((4-(3-cyclopropyl-1,2,4-oxadiazol-5-yl)bicyclo[2.2.2]octan-1-yl)methyl)cyclohexanecarboxamido)phenyl)-1,2,4-oxadiazole-3-carboxylate]	211
O=C(C1CCOCC1)N(CC12CCC(c3nc(CC4CC4)no3)(CC1)CC2)c1cccc(-c2nc(CC3CC3)no2)c1 [Example 41, N-((4-(3-(cyclopropylmethyl)-1,2,4-oxadiazol-5-yl)bicyclo[2.2.2]octan-1-yl)methyl)-N-(3-(3-(cyclopropylmethyl)-1,2,4-oxadiazol-5-yl)phenyl)tetrahydro-2H-pyran-4-carboxamide]	229
COc1nccc(-c2cccc(N(CC34CCC(c5nc(C6CC6)no5)(CC3)CC4)C(=O)C3CCOCC3)c2)n1 [Example 84, N-((4-(3-cyclopropyl-1,2,4-oxadiazol-5-yl)bicyclo[2.2.2]octan-1-yl)methyl)-N-(3-(2-methoxypyrimidin-4-yl)phenyl)tetrahydro-2H-pyran-4-carboxamide]	1770
COc1cc(-c2cccc(N(CC34CCC(c5nnc(C)s5)(CC3)CC4)C(=O)C3CCC(F)(F)CC3)c2)ccn1 [Example 82, 4,4-difluoro-N-(3-(2-methoxypyridin-4-yl)phenyl)-N-((4-(5-methyl-1,3,4-thiadiazol-2-yl)bicyclo[2.2.2]octan-1-yl)methyl)cyclohexane-1-carboxamide]	4760
CC(C)(C)c1noc(C23CCC(CN(C(=O)C4CCOCC4)c4cccc(-c5nc(C6CC6)no5)c4)(CC2)CC3)n1 [Example 69, N-((4-(3-(tert-butyl)-1,2,4-oxadiazol-5-yl)bicyclo[2.2.2]octan-1-yl)methyl)-N-(3-(3-cyclopropyl-1,2,4-oxadiazol-5-yl)phenyl)tetrahydro-2H-pyran-4-carboxamide]	162

Further compounds by falling EC50, results first:

EC50 [nM]	Structure (SMILES)
1580	Cn1nc(C2CC2)cc1C12CCC(CN(C(=O)C3CCS(=O)(=O)CC3)c3cccc(-c4cc(C5CC5)no4)c3)(CC1)CC2 [Example 138, N-((4-(3-cyclopropyl-1-methyl-1H-pyrazol-5-yl)bicyclo[2.2.2]octan-1-yl)methyl)-N-(3-(3-cyclopropylisoxazol-5-yl)phenyl)tetrahydro-2H-thiopyran-4-carboxamide 1,1-dioxide]
1560	CCOC(=O)c1coc(-c2cccc(N(CC34CCC(c5nc(C)no5)(CC3)CC4)C(=O)C3CCCCC3)c2)n1 [Example 19, Ethyl 2-(3-(N-((4-(3-methyl-1,2,4-oxadiazol-5-yl)bicyclo[2.2.2]octan-1-yl)methyl)cyclohexanecarboxamido)phenyl)oxazole-4-carboxylate]
665	CCOc1ccc(-c2cccc(N(CC34CCC(c5noc(C(C)(F)F)n5)(CC3)CC4)C(=O)C3CCC(F)(F)CC3)c2)cc1 [Example 113, N-((4-(5-(1,1-difluoroethyl)-1,2,4-oxadiazol-3-yl)bicyclo[2.2.2]octan-1-yl)methyl)-N-(4′-ethoxy-[1,1′-biphenyl]-3-yl)-4,4-difluorocyclohexane-1-carboxamide]
289	CC(F)(F)c1nc(C23CCC(CN(C(=O)C4CCS(=O)(=O)CC4)c4cccc(-c5cc(C6CC6)on5)c4)(CC2)CC3)no1 [Example 155, N-(3-(5-cyclopropylisoxazol-3-yl)phenyl)-N-((4-(5-(1,1-difluoroethyl)-1,2,4-oxadiazol-3-yl)bicyclo[2.2.2]octan-1-yl)methyl)tetrahydro-2H-thiopyran-4-carboxamide 1,1-dioxide]
151	COc1cccc(-c2cccc(N(CC34CCC(c5nc(C6CC6)no5)(CC3)CC4)C(=O)C3CCCCC3)c2)c1 [Example 74, N-((4-(3-cyclopropyl-1,2,4-oxadiazol-5-yl)bicyclo[2.2.2]octan-1-yl)methyl)-N-(3′-methoxy-[1,1′-biphenyl]-3-yl)cyclohexanecarboxamide]
69	CC(F)(F)c1nc(C23CCC(CN(C(=O)C4CCC(F)(F)CC4)c4cccc(-c5ccc(OC(F)F)cc5)c4)(CC2)CC3)no1 [Example 111, N-((4-(5-(1,1-difluoroethyl)-1,2,4-oxadiazol-3-yl)bicyclo[2.2.2]octan-1-yl)methyl)-N-(4′-(difluoromethoxy)-[1,1′-biphenyl]-3-yl)-4,4-difluorocyclohexane-1-carboxamide]
37	O=C(C1CCCCC1)N(CC12CCC(c3nc(C4CC4)no3)(CC1)CC2)c1cccc(-c2cnc(C3CC3)o2)c1 [Example 22, N-((4-(3-cyclopropyl-1,2,4-oxadiazol-5-yl)bicyclo[2.2.2]octan-1-yl)methyl)-N-(3-(2-cyclopropyloxazol-5-yl)phenyl)cyclohexanecarboxamide]
